Experimental data from patent US20230123334A1, “AMINO LIPID COMPOUND, PREPARATION METHOD THEREFOR, AND APPLICATION THEREOF” (SHENZHEN SHENXIN BIOTECHNOLOGY CO., LTD., priority 2020, published 2023).

System: HEK293 cells
Assay: Preliminary screening as DNA vectors, GFP transfection of HEK293 cells
Assay type: cell-based
Conditions: amino lipid/DOPE liposome with 75 ng plasmid DNA (psin-EGFP-IRES-Puro); number of GFP-expressing cells divided by total nuclei (Hoechst)
In short: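 Lipid + DOPE liposomes (NaOAc, pH 5.6) complexed w/ 75 ng psin-EGFP-IRES-Puro, 30 min RT; added to 3-5×10^4 HEK293/well, 37° C. Hoechst 0.2 μg/mL at 20-24 h, imaged after further 20-24 h. Efficiency = GFP+ cells / total nuclei.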

Compound	Absolute DNA transfection efficiency in HEK293 cells [%]
CCCCCCCCCCCCCCCSc1nc(NCCCCCCCCCCCCC)nc(NCCN2CCCC2)n1 [S15N13 D3]	4.2
CCCCCCCCCCCCCCCCSc1nc(NCCCCCCCC)nc(NCCN2CCCC2)n1 [S16N8 D3]	13.2
CCCCCCCCCCCCCCCCSc1nc(NCCN2CCN(C)CC2)nc(SCCCCCCC)n1 [S7S16 D5]	7.9
CCCCCCCCCNc1nc(NCCN2CCN(C)CC2)nc(SCCCCCCC)n1 [S7N9 D5]	22.0
CCCCCCCCCCCCCCCNc1nc(NCCCN2CCOCC2)nc(SCCCCCC)n1 [S6N15 D8]	3.3
CCCCCCCCCCCCCCSc1nc(NCCCCCCCC)nc(NCCCN(C)C)n1 [S14N8 D6]	33.4
CCCCCCCCCCCCCCCCCCNc1nc(NCCCN2CCOCC2)nc(SCCCCCC)n1 [S6N18 D8]	8.1
CCCCCCCCCCCCCCCNc1nc(NCCN2CCOCC2)nc(SCCCCCCCCCC)n1 [S10N15 D2]	1.4
CCCCCCCCCCCCCCCCCCSc1nc(NCCN2CCOCC2)nc(SCCCCCC)n1 [S6S18 D2]	8.1
CCCCCCCCCCCSc1nc(NCCCCCC)nc(NCCN2CCN(C)CC2)n1 [S11N6 D5]	21.6
CCCCCCCCCCCCCCCCSc1nc(NCCCCCCCCCCCCC)nc(NCCN(C)C)n1 [S16N13 D1]	1.2
CCCCCCCCCCSc1nc(NCCCN(C)C)nc(SCCCCCCC)n1 [S7S10 D6]	4.7
CCCCCCCCCSc1nc(NCCN2CCN(C)CC2)nc(SCCCCCC)n1 [S6S9 D5]	13.7
CCCCCCCCCCCCCCCCCCNc1nc(NCCN(C)C)nc(SCCCCCCCCCCCCCCC)n1 [S15N18 D1]	0.6
CCCCCCCCCCCCCCCCCCSc1nc(NCCCCCCCCC)nc(NCCCN2CCN(C)CC2)n1 [S18N9 D9]	0.0
CCCCCCCCCCCCNc1nc(NCCN2CCOCC2)nc(SCCCCCCCC)n1 [S8N12 D2]	38.1
CCCCCCCCCCCCCCCCCCNc1nc(NCCN(CC)CC)nc(SCCCCCC)n1 [S6N18 D7]	5.2
CCCCCCCCCCCCCCSc1nc(NCCN2CCOCC2)nc(N(CCCCCCCCCCCC)CCCCCCCCCCCC)n1 [S14^2N12 D2]	0.0
CCCCCCCCCCCCCCCCSc1nc(NCCCCCCC)nc(NCCCN2CCN(C)CC2)n1 [S16N7 D9]	9.8
CCCCCCCCCCCCCCCCSc1nc(NCCN2CCOCC2)nc(N(CCCCCCCCCCCC)CCCCCCCCCCCC)n1 [S16^2N12 D2]	0.0
CCCCCCCCCCCCCNc1nc(NCCN(CC)CC)nc(SCCCCCC)n1 [S6N13 D7]	2.0
CCCCCCCCCCCCCCCCSc1nc(NCCCCCC)nc(NCCN2CCCC2)n1 [S16N6 D3]	35.3
CCCCCCCCCCCCCCCCCCSc1nc(NCCCCCCCCCCCCCCCC)nc(NCCCN2CCOCC2)n1 [S18N16 D8]	0.0
CCCCCCCCCCCCCCCCCCNc1nc(NCCN(C)C)nc(SCCCCCCCCC)n1 [S9N18 D1]	24.2

Compound	Absolute DNA transfection efficiency in HEK293 cells [%]
CCCCCCCCCCCCCCCCNc1nc(NCCCN(C)C)nc(SCCCCCCCC)n1 [S8N16 D6]	3.7
CCCCCCCCCCCCCCCCCCSc1nc(NCCCCCCCCCCC)nc(NCCN2CCOCC2)n1 [S18N11 D2]	1.4
CCCCCCCCCCCCNc1nc(NCCN2CCCCC2)nc(SCCCCCCCCC)n1 [S9N12 D4]	8.0
CCCCCCCCSc1nc(NCCN2CCCC2)nc(SCCCCCC)n1 [S6S8 D3]	2.8
CCCCCCCCCCCCCCSc1nc(NCCCCCCCCC)nc(NCCCN(C)C)n1 [S14N9 D6]	43.9
CCCCCCCCCSc1nc(NCCCCCCCC)nc(NCCN2CCCC2)n1 [S9N8 D3]	37.6
CCCCCCCCCCCCCCCCCCSc1nc(NCCCCCCCCCCCCC)nc(NCC2CCN(C)CC2)n1 [S18N13 D10]	0.9
CCCCCCCCCCCCCCCNc1nc(NCCN2CCCC2)nc(SCCCCCCC)n1 [S7N15 D3]	31.4
CCCCCCCCCCCCCCCCCCNc1nc(NCCN2CCN(C)CC2)nc(SCCCCCCCCCCCC)n1 [S12N18 D5]	0.6
CCCCCCCCCCCCCCCCCCSc1nc(NCCCCCCC)nc(NCCN2CCCC2)n1 [S18N7 D3]	15.6
CCCCCCCCCCSc1nc(NCCN2CCN(C)CC2)nc(SCCCCCC)n1 [S6S10 D5]	12.4
CCCCCCCCCNc1nc(NCCN2CCOCC2)nc(SCCCCCCC)n1 [S7N9 D2]	13.9
CCCCCCCCCCCCCCCCCCSc1nc(NCCCCCC)nc(NCC2CCN(C)CC2)n1 [S18N6 D10]	8.9
CCCCCCCCCCCCCCCNc1nc(NCCN2CCCC2)nc(SCCCCCCCCCCC)n1 [S11N15 D3]	24.5
CCCCCCCCCCCCCNc1nc(NCCN2CCCCC2)nc(SCCCCCCCCC)n1 [S9N13 D4]	6.7
CCCCCCCCCCCSc1nc(NCCN2CCN(C)CC2)nc(SCCCCCCC)n1 [S7S11 D5]	32.4
CCCCCCCCCSc1nc(NCCCCCCCC)nc(NCCN(C)C)n1 [S9N8 D1]	37.3
CCCCCCCCCCCCCCCCCCSc1nc(NCCCCCCCCCCCCCCC)nc(NCCCN(C)C)n1 [S18N15 D6]	0.0
CCCCCCCCCCCCCCSc1nc(NCCCCCCCCCCCC)nc(NCCN2CCN(C)CC2)n1 [S14N12 D5]	9.8
CCCCCCCCCCCCCNc1nc(NCCN(CC)CC)nc(SCCCCCCCCCCCC)n1 [S12N13 D7]	12.9
CCCCCCCCCCCCNc1nc(NCCN2CCCC2)nc(SCCCCCCCC)n1 [S8N12 D3]	17.8
CCCCCCCCSc1nc(NCCCN(C)C)nc(SCCCCCCCC)n1 [S8S8 D6]	5.1
CCCCCCCCCCCCCNc1nc(NCCCN(C)C)nc(SCCCCCCCC)n1 [S8N13 D6]	55.1
CCCCCCCCCCCCCNc1nc(NCCN2CCOCC2)nc(SCCCCCCCCC)n1 [S9N13 D2]	11.1

Compound	Absolute DNA transfection efficiency in HEK293 cells [%]
CCCCCCCCNc1nc(NCCN2CCOCC2)nc(SCCCCCCC)n1 [S7N8 D2]	2.7
CCCCCCCCCCCCN(CCCCCCCCCCCC)c1nc(NCCCN2CCN(C)CC2)nc(SCCCCCCCC)n1 [S8^2N12 D9]	0.7
CCCCCCCCCCSc1nc(NCCCCCCCC)nc(NCCN(CC)CC)n1 [S10N8 D7]	2.0
CCCCCCCCCCCCCCCCCCNc1nc(NCCN2CCCCC2)nc(SCCCCCCCCCCCCCC)n1 [S14N18 D4]	0.7
CCCCCCCCCCCCCCCCCCSc1nc(NCCCCCC)nc(NCCCN2CCOCC2)n1 [S18N6 D8]	5.5
CCCCCCCCCCCCCCCCSc1nc(NCCN2CCOCC2)nc(SCCCCCC)n1 [S6S16 D2]	24.0
CCCCCCCCCCCCCCCSc1nc(NCCCCCCCC)nc(NCCN(CC)CC)n1 [S15N8 D7]	6.7
CCCCCCCCCCCCCCSc1nc(NCCCCCCCC)nc(NCCN2CCCCC2)n1 [S14N8 D4]	2.6
CCCCCCCCCCCCN(CCCCCCCCCCCC)c1nc(NCCCN2CCOCC2)nc(SCCCCCC)n1 [S6^2N12 D8]	0.0
CCCCCCCCCCCSc1nc(NCCCN2CCOCC2)nc(SCCCCCC)n1 [S6S11 D8]	4.5
CCCCCCCCCCCCCCCCSc1nc(NCCCCCCCCCCCCC)nc(NCCCN2CCN(C)CC2)n1 [S16N13 D9]	5.7
CCCCCCCCCCCCCNc1nc(NCCN2CCOCC2)nc(SCCCCCCC)n1 [S7N13 D2]	22.1
CCCCCCCCCCCCCCCCCCSc1nc(NCCCCCCCC)nc(NCCCN2CCOCC2)n1 [S18N8 D8]	2.0
CCCCCCCCCCCCCCCCSc1nc(NCCCCCCCCCCCCC)nc(NCC2CCN(C)CC2)n1 [S16N13 D10]	2.0
CCCCCCCCCCCCNc1nc(NCCN2CCCC2)nc(SCCCCCC)n1 [S6N12 D3]	6.2
CCCCCCCCCCCCCCCNc1nc(NCCN(C)C)nc(SCCCCCCCCCCCCCCC)n1 [S15N15 D1]	0.6
CCCCCCCCCCCCCCCCNc1nc(NCCCN2CCN(C)CC2)nc(SCCCCCCCC)n1 [S8N16 D9]	9.7
CCCCCCCCCCCNc1nc(NCCN2CCCCC2)nc(SCCCCCCC)n1 [S7N11 D4]	6.9
CCCCCCCCCCCCCCCCCCSc1nc(NCCCCCCC)nc(NCCN(C)C)n1 [S18N7 D1]	6.8
CCCCCCCCCCSc1nc(NCCCN2CCN(C)CC2)nc(SCCCCCCCC)n1 [S8S10 D9]	25.6
CCCCCCCCCCCCCCCCCCNc1nc(NCCN(CC)CC)nc(SCCCCCCCC)n1 [S8N18 D7]	4.1
CCCCCCCCCCCCCCCCNc1nc(NCCN(C)C)nc(SCCCCCCCCC)n1 [S9N16 D1]	19.2
CCCCCCCCCCCCNc1nc(NCCN2CCOCC2)nc(SCCCCCC)n1 [S6N12 D2]	0.9
CCCCCCCCCSc1nc(NCCCCCC)nc(NCCN2CCOCC2)n1 [S9N6 D2]	2.1
